Data published in patent US20240400547A1, “2,6-PIPERIDINEDIONE COMPOUND AND APPLICATION THEREOF” (MEDSHINE DISCOVERY INC., priority 2021, published 2024).
Where a name gives a salt, the structure may show the parent alone.

Tests used:
[1] = test system: SU-DHL-2; assay: Antiproliferative effect in lymphoma cell line SU-DHL-2 (CellTiter-Glo); format: cell-based, human; conditions: SU-DHL-2, 4 days
Description: Experimental purpose: The experiment aims to evaluate the inhibitory effects of the test compounds on cell proliferation in the lymphoma cell line SU-DHL-2.
The tumor cell lines were cultured in a 37° C., 5% CO2 incubator under the above culture conditions. Regular passage, and cells in logarithmic growth phase were taken for plating.
• (1) Cells were stained with trypan blue and viable cells were counted. • (2) The cell concentration was adjusted to an appropriate concentration.
• (3) 50 μL of cell suspension per well was added to the culture plate as shown in the figure above. • (4) The culture plate was cultured overnight in a 37° C., 5% CO2 incubator with 100% relative humidity.
Compounds were added using the Echo655 instrument. The volume of compound added was 50 nL, with a final DMSO concentration of 0.1%. The culture plate was centrifuged at 1000 rpm for 1 minute, then incubated for 4 days in an incubator at 37° C., 5% CO2, and with 100% relative humidity.
The following steps were performed according to the instructions of Promega CellTiter-Glo luminescent cell viability assay kit (Promega-G7573). • (1) CellTiter-Glo buffer was melted and brought to room temperature. • (2) CellTiter-Glo substrate was brought to room temperature. • (3) CellTiter-Glo working solution was prepared by adding CellTiter-Glo buffer to a vial of CellTiter-Glo substrate to dissolve the substrate; • (4) The mixture was slowly vortexed and shaken to be fully dissolved. • (5) The cell culture plate was taken out and left for 30 minutes to equilibrate to room temperature. • (6) 25 μL of CellTiter-Glo working solution was added per well (equal to half the volume of cell culture medium per well). The cell plate was wrapped in aluminum foil to be protected from light. • (7) The culture plate was shaken on an orbital shaker for 2 minutes to induce cell lysis. • (8) The culture plate was left at room temperature for 10 minutes to stabilize the luminescent signal. • (9) The luminescent signal was detected on a 2104 EnVision plate reader.
The inhibition rate (IR) of the test compound was calculated using the following formula: IR (%)=(1−(RLU compound/RLU blank control)/(RLU vehicle control−RLU blank control)×100%. The inhibition rates of compounds at different concentrations were calculated in Excel, and then GraphPad Prism software was used to plot inhibition curves and calculate relevant parameters, including minimum inhibition rate, maximum inhibition rate, and IC50.

[2] = target: T1, IRAK4 (Homo sapiens, UniProt Q9NWZ3); assay: Target protein degradation in K562 IRAK4-HiBiT cells (Nano-Glo HiBiT); format: cell-based; conditions: 16 to 18 hours
T1 construct: expressed in transfected cells; host or cells: K562 IRAK4-HiBiT cells
T1 sequence (Q9NWZ3 1-460): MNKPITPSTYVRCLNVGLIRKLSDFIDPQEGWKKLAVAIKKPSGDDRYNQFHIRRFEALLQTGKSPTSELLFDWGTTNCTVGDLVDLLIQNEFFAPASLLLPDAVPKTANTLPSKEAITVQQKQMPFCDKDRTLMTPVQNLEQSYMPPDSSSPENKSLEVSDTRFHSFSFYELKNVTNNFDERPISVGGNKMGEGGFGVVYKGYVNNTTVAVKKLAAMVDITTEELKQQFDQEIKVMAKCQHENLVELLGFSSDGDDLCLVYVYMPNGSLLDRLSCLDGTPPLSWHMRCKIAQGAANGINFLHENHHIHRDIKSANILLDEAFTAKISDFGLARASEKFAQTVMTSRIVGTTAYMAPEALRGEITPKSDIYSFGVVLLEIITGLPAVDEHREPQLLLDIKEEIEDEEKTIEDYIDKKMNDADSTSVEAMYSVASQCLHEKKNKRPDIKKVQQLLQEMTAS
Description: Experimental objective: The experiment aims to evaluate the degradation effect of the test compounds on the target protein IRAK4 in K562 IRAK4-HiBiT cells.
• Cells: K562 IRAK4-HiBiT cells • Culture medium: RPMI 1640+10% fetal bovine serum+2 mM glutamine+1 mM sodium pyruvate+penicillin/streptomycin. • Positive control: 1000 nM; negative control: 0.1% DMSO.
• (1). The powder of the compound to be tested was dissolved in DMSO to a storage concentration of 10 mM. A total of 9 μL of the 10 mM of the compound to be tested was manually pipetted into the 1st and 13th columns of the LDV plate using a pipettor; • (2). A volume of 6 μL of DMSO was added to columns 2-12 and 14-24 using a Multidrop Combi; • (3). A 3-fold dilution of the test compounds (3 μL+6 μL) was performed using Bravo, for columns 1-11 and 13-23; • (4). According to the plate layout, 25 nL of compound solution (columns 1-24 of the LDV plate) was transferred to the experimental plate using Echo; • (5) 25 nL of the 1 mM positive control solution was transferred to the assay plate as a 100% degradation control (i.e. LC, HPE), and 25 nL of DMSO was transferred to the assay plate as a 0% control (i.e. HC, ZPE).
• (1) The culture medium was discarded, and the cells were washed once with DPBS, digested with trypsin, counted, and prepared into a cell suspension of […]. • (2) Using the MultiDrop Combi at a medium speed, 25 μL/well of the cell suspension was added to the experimental plate containing the test compounds; • (3) The experimental plate containing cells was returned to the incubator and cultured for 16 to 18 hours at 37° C. and 5% CO2.
• (1). Using the MultiDrop Combi at a high speed, 25 μL/well of the assay reagent (NanoGlo lytic solution+substrate+LgBit protein) was added to the assay plate, followed by shaking for 10 minutes; • (2) The plate was centrifuged at 2000 rpm for 1 minute to remove any bubbles; • (3) Readings were obtained by using an Envision, US Luminescence reader.
To calculate the degradation rate (DR) of the test compounds, the following formula is used: IR (%)=(RLU vehicle control−RLU compound)/(RLU vehicle control−RLU positive control)×100%. The solvent control refers to the blank control. The degradation rates of compounds at different concentrations were calculated in Excel, and then XLFit software was used to plot inhibition curves and calculate relevant parameters, including minimum degradation rate, maximum degradation rate, and DC50.

[3] = target: T2, IKZF1 (Homo sapiens, UniProt Q13422+Q96SW2); assay: In Cell Western of IKZF1 protein expression level in MM.1S cells; format: cell-based; conditions: IKZF1, MM.1S cells, 24 hours
T2 construct: host or cells: MM.1S cells
T2 sequence (Q13422 whole entry): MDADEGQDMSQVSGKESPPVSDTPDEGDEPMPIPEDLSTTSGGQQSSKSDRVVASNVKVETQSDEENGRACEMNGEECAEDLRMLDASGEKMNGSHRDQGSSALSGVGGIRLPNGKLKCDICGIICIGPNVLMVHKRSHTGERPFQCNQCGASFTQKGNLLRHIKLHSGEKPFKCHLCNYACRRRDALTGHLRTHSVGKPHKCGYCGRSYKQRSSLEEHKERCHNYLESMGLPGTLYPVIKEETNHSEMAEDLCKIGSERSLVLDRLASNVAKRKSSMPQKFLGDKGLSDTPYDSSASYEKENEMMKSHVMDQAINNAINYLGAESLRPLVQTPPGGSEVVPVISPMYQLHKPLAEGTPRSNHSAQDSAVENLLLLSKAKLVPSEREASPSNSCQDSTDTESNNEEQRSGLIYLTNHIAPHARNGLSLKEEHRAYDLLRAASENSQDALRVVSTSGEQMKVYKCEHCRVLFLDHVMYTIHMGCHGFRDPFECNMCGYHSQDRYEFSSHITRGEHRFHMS
T2 sequence (Q96SW2 whole entry): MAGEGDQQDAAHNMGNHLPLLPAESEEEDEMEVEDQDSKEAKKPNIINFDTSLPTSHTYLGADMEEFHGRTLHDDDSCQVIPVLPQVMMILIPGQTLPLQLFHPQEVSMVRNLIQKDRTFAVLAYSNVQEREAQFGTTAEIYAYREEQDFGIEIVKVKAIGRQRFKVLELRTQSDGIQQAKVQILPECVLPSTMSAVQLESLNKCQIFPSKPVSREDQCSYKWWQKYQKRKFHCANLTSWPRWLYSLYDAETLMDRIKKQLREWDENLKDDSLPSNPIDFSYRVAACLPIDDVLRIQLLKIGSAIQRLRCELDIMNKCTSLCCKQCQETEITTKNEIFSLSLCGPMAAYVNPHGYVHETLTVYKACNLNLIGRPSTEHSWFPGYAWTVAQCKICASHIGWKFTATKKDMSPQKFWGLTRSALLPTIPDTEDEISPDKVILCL
T2 sequence (Q16531 whole entry partner): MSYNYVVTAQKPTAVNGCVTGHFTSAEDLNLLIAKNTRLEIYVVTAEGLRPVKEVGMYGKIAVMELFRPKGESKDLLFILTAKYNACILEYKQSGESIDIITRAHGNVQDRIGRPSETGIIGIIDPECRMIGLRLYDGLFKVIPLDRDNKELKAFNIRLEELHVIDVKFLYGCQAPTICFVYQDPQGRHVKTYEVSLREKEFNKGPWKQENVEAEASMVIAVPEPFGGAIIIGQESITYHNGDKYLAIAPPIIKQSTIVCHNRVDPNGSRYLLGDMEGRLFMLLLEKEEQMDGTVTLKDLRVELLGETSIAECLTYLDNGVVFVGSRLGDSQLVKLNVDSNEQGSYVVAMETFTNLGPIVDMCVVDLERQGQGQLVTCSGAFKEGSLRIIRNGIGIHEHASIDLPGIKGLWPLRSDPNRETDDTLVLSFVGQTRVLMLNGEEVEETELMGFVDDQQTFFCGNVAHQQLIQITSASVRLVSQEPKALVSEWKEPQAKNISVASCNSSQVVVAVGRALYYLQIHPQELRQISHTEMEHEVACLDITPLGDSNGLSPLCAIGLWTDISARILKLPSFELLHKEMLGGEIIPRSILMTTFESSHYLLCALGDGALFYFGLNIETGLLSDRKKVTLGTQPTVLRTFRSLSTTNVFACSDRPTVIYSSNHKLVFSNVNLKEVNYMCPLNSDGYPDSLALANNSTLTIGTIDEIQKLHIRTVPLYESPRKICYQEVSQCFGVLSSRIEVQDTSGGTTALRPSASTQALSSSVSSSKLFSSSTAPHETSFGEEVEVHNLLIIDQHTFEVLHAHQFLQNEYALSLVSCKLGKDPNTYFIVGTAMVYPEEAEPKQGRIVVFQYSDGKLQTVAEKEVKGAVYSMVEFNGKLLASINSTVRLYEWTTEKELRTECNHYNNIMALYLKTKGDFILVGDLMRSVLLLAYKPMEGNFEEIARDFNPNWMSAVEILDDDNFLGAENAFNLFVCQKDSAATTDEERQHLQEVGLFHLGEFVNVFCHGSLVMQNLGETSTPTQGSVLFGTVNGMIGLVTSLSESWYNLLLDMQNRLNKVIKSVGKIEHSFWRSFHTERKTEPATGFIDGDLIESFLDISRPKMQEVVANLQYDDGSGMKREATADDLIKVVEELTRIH
Description: Experimental objective: The experiment aims to assess the degradation effect of the test compounds on IKZF1 and 1KZF3 proteins in MM.1S cells by evaluating the impact of the test compounds on the expression levels of IKZF1 and IZKZF3 proteins in MM.1S cells.
• Cell lines: MMN.1 S cell (sourced from ATCC; Cat. No CRL-2974) • Negative control: 0.100 DMSO.
• 1) Log phase MM.1 S cells were plated in a 96-well plate at 1.2×10^5 cells per well and cultured overnight; • 2) The next day, compounds were added with a starting concentration of 300 nM, diluted threefold across three replicate wells for 10 concentration gradients (including DMSO), and the cells were incubated for 24 hours in an incubator; • 3) The cells were centrifuged, and the supernatant was carefully removed. 150 μL of 4% paraformaldehyde fixative was added along the wall of the wells, avoiding contact with the bottom cells, and the cells were incubated at room temperature for 20 minutes; • 4) Lysis buffer was prepared by mixing 0.5 mL of 10% Triton X-100 with 49.5 mL of PBS until homogenous; • 5) 200 μL of lysis buffer was added along the well walls, again avoiding the bottom cells, and incubated on a shaker at room temperature for 5 minutes; • 6) The wells were washed four times; • 7) 150 μL of Licor […] Blocking Buffer was added along the well walls, avoiding the bottom cells, and the cells were incubated on a shaker at room temperature for 1.5 hours; • 8) Ikaros (D6N9Y) Rabbit mAb, Aiolos (D1C1E) Rabbit mAb and GAPDH mouse mAb (proteintech, 60004-1-Ig) were diluted at a 1:100 ratio using antibody dilution buffer; • 9) 50 μL of mixed antibody was added to each well with three replicate wells, and the cells were incubated overnight on a shaker at 4° C.; • 10) PBST (PBS with 0.1% Tween 20) was prepared; • 11) The primary antibodies were removed, and 200 μL of PBST was added along the well walls, avoiding the bottom cells, and the cells were incubated on a shaker at room temperature for 5 minutes; • 12) The wells were washed four times; • 13) Secondary antibody dilution buffer was prepared by adding Tween 20 to Licor […] Blocking Buffer to a final concentration of 0.2%; • 14) Fluorescent secondary antibodies were diluted in the dark at a 1:800 ratio. To 400 μL of secondary antibody dilution solution, 0.5 μL of each IRDye 800CW and IRDye 680CW (corresponding to the primary antibodies) was added. • 15) 50 μL of the diluted fluorescent secondary antibodies was added to each well and the cells were incubated on a shaker at room temperature in the dark for 60 minutes; • 16) The secondary antibodies were removed, and 200 μL of PBST was added along the well walls, avoiding the bottom cells, and the cells were incubated on a shaker at room temperature in the dark for 5 minutes; • 17) The wells were washed four times; immediately after washing, the Odyssey Gel Imaging System was used for detection at dual wavelengths of 700 nm and 800 nm.
Using GraphPad Prism 6 software, inhibition rate data was entered to fit the curve and calculate the DC50 value.

SMILES: CN(CCCOCCCc1ccc2occ(C3CCC(=O)NC3=O)c2c1)C[C@H]1CC[C@H](n2cc(NC(=O)c3coc(-c4ccnc(NCC5CC5)c4)n3)c(C(F)F)n2)CC1 (stereo partly drawn) [Hydrochloride of WX004]
- IC50 ([1]; Homo sapiens, 96 h): 64.5 nM
- Maximum inhibition rate [1]: 99.05%

SMILES: CC(C)(O)c1cc2nc([C@H]3CC[C@H](CN4CCN(CC(=O)Nc5cccc6c(C7CCC(=O)NC7=O)noc56)CC4)CC3)sc2cc1NC(=O)c1cccc(C(F)(F)F)n1 (stereo partly drawn) [Formate of WX029]
- DC50 [2]: 4.26 nM
- Dmax ([2]; read-out: Maximum degradation rate): 112%
- DC50 [3]: 38.8 nM
- Dmax ([3]; MM1.S, read-out: Maximum degradation rate Dmax): 61.8%
